Test systems include HCT-15; IGROV-1; COLO 205; BT-549; A549; RXF 393; TK-10; SF-539; UACC-62; SK-MEL-28; SK-OV-3; CCRF-CEM; SN12C; U-251; DU-145; 786-0; MCF7; Malme-3M; RPMI-8226; T47D.
What all share (assay): growth of human tumour cells (NCI), 48 h

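How tested: cells in 96-well plates exposed to compound for 48 hours at five concentrations. The concentration for 50% growth inhibition is given as GI50.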 Calls of active or inactive are those of the source. No stated cut-off is given here; in the data, active = GI50 up to about 1.1 µM and inactive = higher.

The source of these data is ChEMBL document CHEMBL1201862, “PubChem BioAssay data set” (2004).

With `Cc1ccc(S(=O)(=O)NCc2cccc([N+](=O)[O-])c2)cc1`, the GI50 with HCT-15 was greater than 100 µM; in the assay on IGROV-1, > 100 µM (inactive); in the assay with COLO 205 it was > 100 µM (inactive); in the assay on BT-549, > 100 µM (inactive); in the assay on A549, > 100 µM (inactive); in the assay with RXF 393 it was > 100 µM (inactive). For the same compound, the GI50 is > 100 µM (inactive) with TK-10; > 100 µM (inactive) in the assay with SF-539; > 100 µM (inactive) with UACC-62; > 100 µM (inactive) in the assay on SK-MEL-28; > 100 µM (inactive) with SK-OV-3; 27.8 µM (inactive) in the assay with CCRF-CEM. The GI50 with SN12C, with U-251, with DU-145, in the assay with 786-0, with MCF7 and in the assay on Malme-3M was > 100 µM (inactive) in each case. Moreover, the GI50 in the assay on RPMI-8226 and in the assay with T47D was > 100 µM (inactive) each time.
Regarding `N=C(N)C(/N=N\c1ccccc1)C(=N)N` (stereo not drawn), the GI50 in the assay on HCT-15 is 49.8 µM; with IGROV-1 it was 33.2 µM (inactive); in the assay on COLO 205, 29.8 µM (inactive); in the assay with BT-549, 39.9 µM (inactive); in the assay with A549, 49.9 µM (inactive); with RXF 393 it was > 100 µM (inactive). Moreover, the GI50 with TK-10 is 46.9 µM (inactive); in the assay with SF-539 it was 14.9 µM (inactive); in the assay with UACC-62, 34.5 µM (inactive); in the assay on SK-MEL-28, 49.1 µM (inactive); in the assay with SK-OV-3, 64.6 µM (inactive); in the assay on CCRF-CEM it was 13.5 µM (inactive). The GI50 in the assay on SN12C is 36.6 µM (inactive); with U-251, 24 µM (inactive); in the assay with DU-145 it was > 100 µM (inactive); in the assay with 786-0, 35.6 µM (inactive); in the assay with MCF7, 25.6 µM (inactive); in the assay on Malme-3M it was 51.1 µM (inactive). Besides, the GI50 in the assay on RPMI-8226 is 27.9 µM (inactive); in the assay on T47D, 46.3 µM (inactive).
On to `COP(=O)(OC)/C(=C/c1cn(C(c2ccccc2)(c2ccccc2)c2ccccc2)cn1)NC=O`, for which the GI50 is 25.6 µM in the assay on HCT-15; 20.5 µM (inactive) in the assay with IGROV-1; 15.4 µM (inactive) with COLO 205; 16 µM (inactive) in the assay with BT-549; 23.4 µM (inactive) in the assay on A549; 16.3 µM (inactive) in the assay with RXF 393. Moreover, the GI50 in the assay with TK-10 was 22.5 µM (inactive); with SF-539 it was 14.4 µM (inactive); in the assay on UACC-62, 18.7 µM (inactive); with SK-MEL-28, 33.4 µM (inactive); in the assay with SK-OV-3 it was 34 µM (inactive); with CCRF-CEM, 24.8 µM (inactive). The GI50 was 19.2 µM (inactive) in the assay on SN12C; 16.4 µM (inactive) in the assay with U-251; 21.6 µM (inactive) in the assay with DU-145; 29.4 µM (inactive) in the assay on 786-0; 16 µM (inactive) with MCF7; 18.6 µM (inactive) with Malme-3M. The results for the GI50 with RPMI-8226 and in the assay with T47D were 32 µM (inactive) and 26.4 µM (inactive), respectively.
In the case of `COc1cc2c3c(c1)c1cc(OC)c(OC)cc1c[n+]3CC2`, the GI50 in the assay with HCT-15 was greater than 50 µM; in the assay with IGROV-1 it was 17.5 µM (inactive); in the assay on COLO 205 it was 7.29 µM (inactive); in the assay on BT-549, 2.63 µM (inactive); with A549, > 50 µM (inactive); in the assay with RXF 393, 27.9 µM (inactive). Also, the GI50 with TK-10 was > 50 µM (inactive); with SF-539, 6.12 µM (inactive); with UACC-62, 19.1 µM (inactive); in the assay with SK-MEL-28, 22.8 µM (inactive); in the assay with SK-OV-3 it was > 50 µM (inactive); with CCRF-CEM, > 50 µM (inactive). Further, the GI50 in the assay with SN12C was 1.53 µM (inactive); in the assay with U-251, 2.22 µM (inactive); in the assay on DU-145, 31.8 µM (inactive); in the assay on 786-0 it was 1.61 µM (inactive); in the assay on MCF7, 15.8 µM (inactive); in the assay on Malme-3M it was 0.991 µM (active). Moreover, the GI50 in the assay on RPMI-8226 is 18.7 µM (inactive); in the assay with T47D it was 5.35 µM (inactive).
`Nc1cccc(Nc2nc3ccccc3nc2NS(=O)(=O)c2ccccc2)c1`: the GI50 in the assay on HCT-15 is 25.6 µM; in the assay with IGROV-1, 24.5 µM (inactive); in the assay on COLO 205 it was 15.8 µM (inactive); in the assay on BT-549, 6.65 µM (inactive); in the assay on A549 it was 33 µM (inactive); with RXF 393 it was 18.3 µM (inactive). The GI50 in the assay on TK-10 was 42 µM (inactive); with SF-539, 19.1 µM (inactive); with UACC-62 it was 20.7 µM (inactive); with SK-MEL-28 it was 18.3 µM (inactive); with SK-OV-3 it was 30.4 µM (inactive); in the assay on CCRF-CEM it was 15.2 µM (inactive). The GI50 in the assay with SN12C was 26 µM (inactive); in the assay on U-251, 17.7 µM (inactive); with DU-145, 31.5 µM (inactive); with 786-0, 29 µM (inactive); in the assay with MCF7 it was 33.6 µM (inactive); with Malme-3M, 28.6 µM (inactive). Further, the GI50 in the assay with RPMI-8226 was 16.7 µM (inactive); in the assay on T47D, 24.7 µM (inactive).
As to `COc1ccc2nccc(NCCCN3CCN(CCCNc4ccnc5ccc(OC)cc45)CC3)c2c1`, the GI50 in the assay with HCT-15 is 11.8 µM; in the assay on IGROV-1, 0.283 µM (active); in the assay with COLO 205, 0.261 µM (active); in the assay on BT-549, 4.27 µM (inactive); in the assay with A549, 0.296 µM (active); with RXF 393, 1.32 µM (inactive). Moreover, the GI50 was 5.31 µM (inactive) with TK-10; 0.173 µM (active) in the assay on SF-539; 0.918 µM (active) in the assay on UACC-62; 1.09 µM (active) in the assay with SK-MEL-28; 1.53 µM (inactive) with SK-OV-3; 0.0828 µM (active) in the assay with CCRF-CEM. Moreover, the GI50 is 0.177 µM (active) in the assay with SN12C; 0.232 µM (active) with U-251; 0.508 µM (active) in the assay on DU-145; 0.582 µM (active) with 786-0; 0.0403 µM (active) with MCF7; 0.644 µM (active) in the assay with Malme-3M. Also, the GI50 in the assay with RPMI-8226 was 0.264 µM (active); with T47D, 0.887 µM (active).
Regarding `O=C1Nc2cccc(Cl)c2/C1=C\c1c(Cl)nc2n1CCS2`, the GI50 is 96.6 µM in the assay on HCT-15; > 100 µM (inactive) in the assay with IGROV-1; > 100 µM (inactive) with COLO 205; > 100 µM (inactive) in the assay with BT-549; > 100 µM (inactive) with A549; 53.2 µM (inactive) with RXF 393. The GI50 is 60.7 µM (inactive) with TK-10; 89.1 µM (inactive) in the assay on SF-539; 73.5 µM (inactive) in the assay on UACC-62; > 100 µM (inactive) in the assay with SK-MEL-28; > 100 µM (inactive) in the assay with SK-OV-3; > 100 µM (inactive) in the assay on CCRF-CEM. Further, the GI50 in the assay on SN12C is > 100 µM (inactive); in the assay on U-251, > 100 µM (inactive); in the assay with DU-145, > 100 µM (inactive); in the assay with 786-0 it was > 100 µM (inactive); in the assay on MCF7, 8.43 µM (inactive); in the assay on Malme-3M, > 100 µM (inactive). Besides, the GI50 in the assay on RPMI-8226 is > 100 µM (inactive); with T47D, 48.3 µM (inactive).
For `Cc1ccc(/C=N/Nc2ccc3ccccc3n2)s1`, the GI50 in the assay on HCT-15 is 12 µM; in the assay on IGROV-1 it was 16.3 µM (inactive); with COLO 205, 12.9 µM (inactive); with BT-549, 18.2 µM (inactive); in the assay on A549 it was 14.3 µM (inactive); in the assay with RXF 393 it was 37.7 µM (inactive). For the same compound, the GI50 is 22.1 µM (inactive) with TK-10; 83.4 µM (inactive) in the assay on SF-539; 34.8 µM (inactive) in the assay on UACC-62; 17.2 µM (inactive) in the assay on SK-MEL-28; 30.2 µM (inactive) with SK-OV-3; > 100 µM (inactive) in the assay with CCRF-CEM. In addition, the GI50 in the assay on SN12C is 13 µM (inactive); with U-251 it was 21.1 µM (inactive); in the assay with DU-145, > 10 µM (inactive); in the assay with 786-0, 18.8 µM (inactive); with MCF7, 17.5 µM (inactive); in the assay on Malme-3M it was 14.9 µM (inactive). Besides, the GI50 was 14.2 µM (inactive) in the assay on RPMI-8226 and 8.28 µM (inactive) in the assay on T47D.
`CCc1cccc(CC)c1Nc1nc(-c2ccccc2-c2ccccc2)cs1`: the GI50 in the assay on HCT-15 was 94.2 µM; in the assay with IGROV-1, 43.7 µM (inactive); in the assay on COLO 205, 66.5 µM (inactive); in the assay on BT-549, 18.2 µM (inactive); with A549, > 100 µM (inactive); with RXF 393 it was > 100 µM (inactive). For the same compound, the GI50 in the assay with TK-10 is 82.2 µM (inactive); in the assay on SF-539, > 100 µM (inactive); in the assay on UACC-62 it was 86.5 µM (inactive); in the assay with SK-MEL-28, > 100 µM (inactive); with SK-OV-3, > 100 µM (inactive); in the assay on CCRF-CEM it was > 100 µM (inactive). Also, the GI50 in the assay with SN12C is > 100 µM (inactive); with U-251 it was 54.8 µM (inactive); with DU-145, > 100 µM (inactive); in the assay on 786-0, > 100 µM (inactive); with MCF7 it was 66.2 µM (inactive); with Malme-3M, > 100 µM (inactive). For the same compound, the GI50 in the assay on RPMI-8226 was 30.3 µM (inactive); with T47D, > 100 µM (inactive).
On to `COc1cccc2c1C(=O)c1c(O)c3c(c(O)c1C2=O)C[C@H](O)C[C@@H]3OC1CC(N)C(O)C(C)O1` (stereo partly drawn), for which the GI50 with HCT-15 is 11.5 µM; in the assay on IGROV-1 it was 1.57 µM (inactive); in the assay with COLO 205 it was 0.508 µM (active); in the assay on BT-549, 3.04 µM (inactive); in the assay with A549, 1.98 µM (inactive); in the assay on RXF 393, 6.58 µM (inactive). Moreover, the GI50 is 1.49 µM (inactive) in the assay with TK-10; 1.33 µM (inactive) in the assay with SF-539; 0.255 µM (active) in the assay with UACC-62; 1.7 µM (inactive) in the assay with SK-MEL-28; 2.13 µM (inactive) in the assay with SK-OV-3; 0.259 µM (active) in the assay on CCRF-CEM. Further, the GI50 with DU-145 was 1.76 µM (inactive); with 786-0, 1.32 µM (inactive); with MCF7 it was < 0.01 µM (active); in the assay on Malme-3M it was 0.843 µM (active); in the assay on RPMI-8226, 1.22 µM (inactive); with T47D it was 1.21 µM (inactive).
